The nature of series [1]: Assay 12: Ocular pharmacokinetics in rabbit eyes. It is filed as in vivo, New Zealand white rabbits. The settings on record: for half-life: New Zealand white, vitreous, intravitreal solution formulation, 200 μg/eye and 50 μg/eye. How it is done: The objective of this assay was to determine the pharmacokinetics of the compound 1 in rabbit ocular tissues.
The compound of the invention, 5-ethyl-2-fluoro-4-(3-(5-(1-methylpiperidin-4-yl)-4,5,6,7-tetrahydro-1H-imidazo[4,5-c]pyridin-2-yl)-1H-indazol-6-yl)phenol (1) was dissolved in either 10% 2-hydroxypropyl-β-cyclodextrin to attain a target concentration of 4 mg/mL or in purified water to attain a target concentration of 1 mg/mL . Bilateral intravitreal injection (50 μL/eye) of the solution of test compound was administered to New Zealand white rabbits in two dose groups, 200 μg/eye and 50 μg/eye, respectively, for the cyclodextrin and water vehicle formulations, respectively. The test compound concentration was measured in ocular tissues: vitreous, aqueous, retina/choroid and iris-ciliary body at pre-determined time points post injection (30 min, 4 h, 1 d, 3 d, 7 d, 14 d). Two rabbits (four eyes) were dosed for each time point.
A suspension formulation was prepared by combining crystalline compound 1 of Example 2 with 0.5% hydroxypropyl methylcellulose (HPMC E5)+0.02% Tween 80 to attain a target concentration of 10 mg/mL. Bilateral intravitreal injection (50 μL/eye) of the suspension of test compound was administered to New Zealand white rabbits (500 μg/eye). The test compound concentration was measured in ocular tissues as in the […] at 30 min, 2 wks, 4 wks, 6 wks, and 8 wks post injection. […] The behavior is consistent with the solubility of compound 1 in the vehicle and the ocular pharmacokinetic behavior in the solution formulation. The drug concentration in plasma was measured and found to be at least 3 orders of magnitude lower than the concentration in vitreous tissue.

For series [2], the system named is IL-2/anti-CD3 stimulated IFNγ in human PBMCs. Kind of series: Assay 3: Inhibition of IL-2/anti-CD3 stimulated IFNγ in human PBMCs. The format is cell-based. Conditions: PBMC, 24 h stimulation, ELISA, read-out: pIC50, inhibition of IL-2/anti-CD3 stimulated IFNγ (converted). An excerpt:
Data are expressed as pIC50 (negative decadic logarithm IC50) values.
A general note: ELISA stands for enzyme-linked immunosorbent assay.

In a further series the target is T1, JAK2 (Homo sapiens, UniProt O60674).
T1 construct: GST; purchased Life Technologies
Kind of series: Assay 1: LanthaScreen biochemical JAK kinase assay, JAK2. The settings on record: converted from pIC50 by Cheng-Prusoff; ATP at Km 3 μM; read-out: JAK 2 pKi (converted). The procedure:
A panel of four LanthaScreen JAK biochemical assays (JAK1, 2, 3 and Tyk2) were carried in a common kinase reaction buffer (50 mM HEPES, pH 7.5, 0.01% Brij-35, 10 mM MgCl2, and 1 mM EGTA). Recombinant GST-tagged JAK enzymes and a GFP-tagged STAT1 peptide substrate were obtained from Life Technologies.
The serially diluted compound was pre-incubated with each of the four JAK enzymes and the substrate in white 384-well microplates (Corning) at ambient temperature for lh. ATP was subsequently added to initiate the kinase reactions in 10 μL total volume, with 1% DMSO. […] The plates were allowed to incubate at ambient temperature for lh before being read on the EnVision reader (Perkin Elmer). Emission ratio signals (520 nm/495 nm) were recorded and utilized to calculate the percent inhibition values based on DMSO and background controls.
For dose-response analysis, percent inhibition data were plotted vs. compound concentrations, and IC50 values were determined from a 4-parameter robust fit model with the Prism software (GraphPad Software). Results were expressed as pIC50 (negative logarithm of IC50) and subsequently converted to pK1 (negative logarithm of dissociation constant, Ki) using the Cheng-Prusoff equation.
(In general: Time-resolved FRET reads energy transfer from a long-lived donor to a nearby acceptor.)

Series [3] concerns IL-6 stimulated pSTAT3 in CD3+ T cells. Kind of series: Assay 6: Inhibition of IL-6 stimulated pSTAT3 in CD3+ T cells. The format is cell-based. Conditions: T-cell; CD3+ T cells in human PBMCs, flow cytometry; read-out: pIC50, inhibition of IL-6 stimulated pSTAT3 (converted). An excerpt:
A protocol analogous to that of Assay 5 was used to determine the potency of the test compound for inhibition of interleuken-6 (IL-6) stimulated STAT3 phosphorylation.
An Alexa Fluor 647 conjugated anti-pSTAT3 antibody (pY705, Clone 4/P, BD Biosciences) was used to detect STAT3 phosphorylation.
In general terms: In flow cytometry, cells or beads pass a laser one at a time.

A short description of series [4]: Assay 8: Pharmacokinetics in plasma and lung in mouse. The format is in vivo, BALB/c mice. Conditions: BALB/c, 10 µg/mouse, oral aspiration, 0.2 mg/mL, 50 uL, read-out: exposure in lung relative to exposure in plasma (lung AUC to plasma AUC ratio). The procedure: Plasma and lung levels of test compounds and ratios thereof were determined in the following manner. BALB/c mice from Charles River Laboratories were used in the assay. Test compounds were individually formulated in 20% propylene glycol in pH 4 citrate buffer at a concentration of 0.2 mg/mL and 50 uL of the dosing solution was introduced into the trachea of a mouse by oral aspiration. At various time points (typically 0.167, 2, 6, 24 hr) post dosing, blood samples were removed via cardiac puncture and intact lungs were excised from the mice. Blood samples were centrifuged (Eppendorf centrifuge, 5804R) for 4 minutes at approximately 12,000 rpm at 4° C. to collect plasma. Lungs were padded dry, weighed, and homogenized at a dilution of 1:3 in sterile water. Plasma and lung levels of test compound were determined by LC-MS analysis against analytical standards constructed into a standard curve in the test matrix. A lung to plasma ratio was determined as the ratio of the lung AUC in μg hr/g to the plasma AUC in μg hr/mL, where AUC is conventionally defined as the area under the curve of test compound concentration vs. time.

Each structure is given as a SMILES string. Like-named read-outs stand apart in the source and are kept apart here.

T1 sequence (O60674 whole entry): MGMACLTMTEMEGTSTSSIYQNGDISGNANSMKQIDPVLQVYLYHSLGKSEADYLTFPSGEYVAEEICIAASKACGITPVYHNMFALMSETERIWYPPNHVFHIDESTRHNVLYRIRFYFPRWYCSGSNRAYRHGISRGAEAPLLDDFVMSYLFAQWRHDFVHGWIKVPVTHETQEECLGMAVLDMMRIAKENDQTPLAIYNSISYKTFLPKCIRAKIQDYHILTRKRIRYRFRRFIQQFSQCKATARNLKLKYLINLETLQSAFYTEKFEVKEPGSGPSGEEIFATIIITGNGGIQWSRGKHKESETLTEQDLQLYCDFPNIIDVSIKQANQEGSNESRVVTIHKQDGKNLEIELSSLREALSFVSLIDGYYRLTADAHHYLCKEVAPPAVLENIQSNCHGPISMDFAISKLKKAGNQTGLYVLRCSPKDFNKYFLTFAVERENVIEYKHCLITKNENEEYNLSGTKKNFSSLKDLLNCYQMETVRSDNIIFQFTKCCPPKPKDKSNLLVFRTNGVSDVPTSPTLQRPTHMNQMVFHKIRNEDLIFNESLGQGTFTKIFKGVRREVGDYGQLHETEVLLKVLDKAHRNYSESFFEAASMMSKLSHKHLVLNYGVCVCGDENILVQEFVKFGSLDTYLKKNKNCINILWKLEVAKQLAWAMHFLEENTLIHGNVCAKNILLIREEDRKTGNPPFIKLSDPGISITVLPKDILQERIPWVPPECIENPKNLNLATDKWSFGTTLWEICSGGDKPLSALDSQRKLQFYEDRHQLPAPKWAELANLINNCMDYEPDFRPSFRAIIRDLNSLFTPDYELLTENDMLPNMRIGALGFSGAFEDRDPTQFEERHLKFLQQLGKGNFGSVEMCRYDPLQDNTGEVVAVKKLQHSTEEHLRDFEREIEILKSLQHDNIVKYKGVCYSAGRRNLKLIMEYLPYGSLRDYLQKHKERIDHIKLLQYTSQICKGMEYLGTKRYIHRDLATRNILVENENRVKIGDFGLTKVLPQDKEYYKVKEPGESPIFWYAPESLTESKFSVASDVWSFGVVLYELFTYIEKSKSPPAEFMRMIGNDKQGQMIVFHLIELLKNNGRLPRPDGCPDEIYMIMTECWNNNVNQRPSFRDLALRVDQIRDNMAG

`CCc1cc(O)c(F)cc1-c1ccc2c(-c3nc4c([nH]3)CCN(C3CCN(C)CC3)C4)n[nH]c2c1` [Compound 1, 5-ethyl-2-fluoro-4-(3-(5-(1-methylpiperidin-4-yl)-4,5,6,7-tetrahydro-1H-imidazo[4,5-c]pyridin-2-yl)-1H-indazol-6-yl)phenol]: the figures for the half-life in series [1] (read-out: half-life of initial decrease in concentration in vitreous tissue (converted)) and in series [1] (read-out: terminal half-life in vitreous tissue (converted)) were approximately 12 h and approximately 86.4 h, respectively. Moreover, in series [1] (intravitreal suspension of crystalline compound 1 of Example 2, 500 μg/eye, 30 min to 6 weeks), the “clearance rate (linear decrease in drug concentration in the vitreous)” value is “approximately 3 μg/mL/day”. In addition, the values for the IC50 in series [2] and in series [3] were approximately 50.1 nM and 39.8 nM, respectively. Further, the Ki on JAK2 was 0.0158 nM. The Kp in series [4] was approximately 55.
